Patent US12679878B2, “CRF2 receptor agonists and their use in therapy” (SANOFI, priority 2020, dated 2026)
Like-named read-outs stand apart in the source and are kept apart here. Starred links: 1 amine or outer side, 2 acyl side, 3 side chain; linkers in the order of their positions; H or OH if unused. Non-standard residues stand in square brackets, D forms with d. Residues, ends and D or L forms follow the SMILES beside them. Groups on a side chain read outwards from the residue. *: point of attachment. C18 diacid = O=C(O)CCCCCCCCCCCCCCCCC(=O)*; γGlu = O=C(O)[C@H](CCC(=O)[*:2])N[*:1]; AEEA = NCCOCCOCC(=O)O; Aib = CC(C)(N)C(=O)O

Legend:
human CRF2α receptor = biological target: T1, human CRF2α receptor (Homo sapiens, UniProt Q13324); assay: cAMP agonism at human CRF2 α receptor in TeloHEAC cells (Example 7); type: cell-based; conditions: cAMP HTRF, TeloHEAC cells stably expressing human CRF2 α
T1 construct: expressed in transfected cells; host or cells: TeloHEAC
T1 sequence (Q13324 1-411): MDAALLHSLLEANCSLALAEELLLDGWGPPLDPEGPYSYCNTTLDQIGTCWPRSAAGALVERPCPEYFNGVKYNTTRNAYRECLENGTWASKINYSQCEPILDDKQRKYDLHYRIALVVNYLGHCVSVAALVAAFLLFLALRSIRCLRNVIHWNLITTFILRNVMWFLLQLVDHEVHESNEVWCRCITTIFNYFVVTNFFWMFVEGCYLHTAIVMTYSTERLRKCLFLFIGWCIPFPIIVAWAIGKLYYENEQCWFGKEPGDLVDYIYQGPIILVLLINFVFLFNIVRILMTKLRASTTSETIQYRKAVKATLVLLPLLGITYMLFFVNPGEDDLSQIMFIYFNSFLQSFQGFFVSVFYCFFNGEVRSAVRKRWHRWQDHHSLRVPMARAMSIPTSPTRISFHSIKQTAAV
How it was run: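 HTRF ratio 665/620 nm, read 1 h after lysis reagents, reports cAMP. Cells: thawed stocks, 2000/well, 30 min RT with compound in HBSS, 20 mM HEPES, 0 or 0.1% HSA, 2 mM IBMX. Activity normalised to UCN2 1000 nM = 100%; EC50 from half-maximal activation.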

rat CRF2R α receptor = assay: cAMP agonism at rat CRF2R α receptor in A7R5 rat aortic smooth muscle cells (Example 8); type: cell-based; conditions: cAMP HTRF, A7R5 rat aortic smooth muscle cell line, 0% HSA
How it was run: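 Potency (EC50) is the concentration reaching half-maximal activation, with responses scaled so that 1000 nM urocortin 2 equals 100%. Intracellular cAMP was quantified by homogeneous time-resolved fluorescence at 665/620 nm, 1 h after lysis-buffer reagents. Compound stimulation lasted 30 min at room temperature on 2000 IBMX-treated (2 mM) cells per well in HEPES-buffered HBSS.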

[1] = Pharmacokinetic properties in rats, i.v. or s.c. (Example 16); type: in vivo, SD rat; conditions: male, plasma, Rat; for AUC(0-t) / Cmax / half-life: Sprague-Dawley (SD)
Method: The pharmacokinetic properties of exemplary peptides SEQ ID NO: 35 and SEQ ID NO: 24 were assessed in mice and rats.
The test compound was administered in a suitable buffer system (PBS buffer solution at pH 7.4, or DPBS solution) at concentrations of 0.05, 0.1, 0.5 or 1 mg/ml depending on the dose, species and administration volume. Female C57BI/6 mice and male SD rate were dosed 0.1 mg/kg or 0.3 mg/kg intravenously or subcutaneously. The animals were sacrificed, and blood samples were collected after 0.08, 0.25, 0.5, 1, 2, 4, 8, 24, 32, and 48 hours post-intravenous administration and 0.25, 0.5, 1, 2, 4, 8, 24, 32, and 48 hours post-subcutaneous administration, respectively. Plasma samples were analysed after protein precipitation via liquid chromatography mass spectrometry (LC/MS). Pharmacokinetic parameters and half-life were calculated using Phoenix-WinNonlin 8.1 using a non-compartmental model and linear trapezoidal interpolation calculation.

CRF1R receptor = biological target: T2, CRF1R receptor (Homo sapiens, UniProt P34998); assay: cAMP activity at anti-target CRF1R, CRF1R-overexpression CHO cell line (Example 9); type: cell-based; conditions: CRF1R-overexpression CHO cell line
T2 construct: host or cells: CHO-K1 clone 2
T2 sequence (P34998 24-415): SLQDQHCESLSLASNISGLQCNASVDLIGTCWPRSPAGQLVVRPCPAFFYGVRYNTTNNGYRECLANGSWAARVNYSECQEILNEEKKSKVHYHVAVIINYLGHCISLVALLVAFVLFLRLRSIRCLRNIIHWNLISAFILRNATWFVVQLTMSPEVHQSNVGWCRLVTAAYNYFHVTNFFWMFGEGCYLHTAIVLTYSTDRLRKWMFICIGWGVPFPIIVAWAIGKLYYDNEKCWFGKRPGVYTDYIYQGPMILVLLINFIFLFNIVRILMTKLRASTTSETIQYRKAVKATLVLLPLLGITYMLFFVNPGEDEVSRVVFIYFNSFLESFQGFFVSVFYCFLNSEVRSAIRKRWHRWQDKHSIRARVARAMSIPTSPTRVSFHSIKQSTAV
How it was run: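 Using thawed CRF1R-overexpressing CHO cells at 2000 per well, compound is applied for 30 min at RT in HBSS/HEPES buffer with IBMX. Cellular cAMP content is determined via HTRF, and percent activity is calculated against 1000 nM UCN2 defined as 100%.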

[2] = Solubility in buffer systems by UPLC-UV (Example 13); type: physicochemical; conditions: pH 7.4, Solubility in Buffer C [mg/ml]
How it was run: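 Quantitation used UV peak area from UPLC of the 1:10-diluted supernatant, set against a reference-compound standard curve with extinction coefficients adjusted for amino acid sequence.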

[3] = Chemical stability, purity loss by UPLC-UV after 28 days at 40° C. vs 5° C., pH 4.5 acetate buffer (Example 12); type: physicochemical; conditions: 28 days 40° C. vs 5° C.; pH 4.5, 20 mM acetate buffer; 300 μM
Method: The chemical stability of the compounds was assessed by storing the compounds under various conditions and then determining the loss of purity by UPLC-UV.
Prior to measuring the chemical stability of a batch of test compound, the purity of the compound was determined through UPLC/MS. For stability testing the target concentration was 300 μM pure compound. Therefore, solutions from solid samples were prepared in a pH 4.5, 20 mM acetate buffer system with a concentration of 300 μM compound based on the previously determined % purity:
At the starting point, UPLC-UV was performed by injection of 2 μl of the undiluted sample. Aliquots were then stored for 28 days at temperatures of 5 and 40° C. […] Then 2 μl samples of the undiluted supernatant were analysed with UPLC-UV. The chemical stability was calculated by the equation: [(purity after 28 days at 5° C.)−(purity after 28 days at 40° C.)]/(purity after 28 days at 5° C.)]×100%. The purity was calculated as: [(peak area compound)/(total peak area)]×100%.

[4] = 0% HSA, read-out: EC50 [nM], 0% HSA

EC50 (human CRF2α receptor; [4])	EC50 (rat CRF2R α receptor)	clearance ([1]; SD, iv, 0.1 mg/kg i.v., read-out: CI (converted))	bioavailability ([1]; SD, sc, 0.3 mg/kg s.c.)	AUC(0-t) ([1]; iv, 0.1 mg/kg i.v.)	Cmax ([1]; iv, 0.1 mg/kg i.v.)	half-life ([1]; iv, 0.1 mg/kg i.v.)	AUC(0-t) ([1]; sc, 0.3 mg/kg s.c.)	Cmax ([1]; sc, 0.3 mg/kg s.c.)	half-life ([1]; sc, 0.3 mg/kg s.c.)	EC50 (CRF1R receptor; 0% HSA)	Emax (CRF1R receptor; read-out: Emax (%))	solubility at 1 h [2]	EC50 (human CRF2α receptor; 0.1% HSA, read-out: EC50 [nM], 0.1% HSA)	Relative purity loss [%] [3]	SMILES
6.95 nM	4.94 nM	0.43 mL/min/kg	24%	3790 ng·h/mL	1480 ng/mL	4.81 h	2610 ng·h/mL	171 ng/mL	5.51 h	> 1000 nM	1.48%	> 10.1 mg/mL			CC[C@H](C)[C@H](N)C(=O)N[C@H](C(=O)N[C@@H](CC(C)C)C(=O)N[C@@H](CO)C(=O)N[C@@H](CC(C)C)C(=O)N[C@@H](CC(=O)O)C(=O)N[C@@H](C(=O)N1CCC[C@H]1C(=O)N[C@H](C(=O)N[C@@H](CCCCN)C(=O)N[C@@H](CC(C)C)C(=O)N[C@@H](CCCCNC(=O)COCCOCCNC(=O)COCCOCCNC(=O)CC[C@H](NC(=O)CCCCCCCCCCCCCCCCC(=O)O)C(=O)O)C(=O)N[C@@H](CCC(N)=O)C(=O)N[C@@H](CCCCN)C(=O)N[C@@H](CC(C)C)C(=O)N[C@@H](CC(C)C)C(=O)N[C@@H](CCCCN)C(=O)N[C@@H](CCC(N)=O)C(=O)N[C@@H](CCC(=O)O)C(=O)N[C@@H](CCCNC(=N)N)C(=O)N[C@@H](CCC(N)=O)C(=O)N[C@@H](CCCNC(=N)N)C(=O)N[C@@H](CCCCN)C(=O)N[C@@H](CCC(=O)O)C(=O)N[C@@H](CCCNC(=N)N)C(=O)N[C@@H](CCC(=O)O)C(=O)N[C@@H](CCC(N)=O)C(=O)N[C@@H](C)C(=O)N[C@@H](CCC(=O)O)C(=O)N[C@@H](CCCCN)C(=O)N[C@@H](CC(N)=O)C(=O)N[C@@H](CCCCN)C(=O)N[C@@H](CCCNC(=N)N)C(=O)N[C@H](C(=O)N[C@@H](CC(C)C)C(=O)N[C@@H](CCC(=O)O)C(=O)N[C@@H](CCCNC(=N)N)C(=O)N[C@H](C(N)=O)C(C)C)[C@@H](C)CC)[C@@H](C)O)C(C)C)C(C)C [compound 24] (H-IVLSLD[dV]PTKLK([AEEA-AEEA-γGlu-C18 diacid])QKLLKQERQRKEREQAEKNKRILERV-NH2; N-terminus assumed)
0.04 nM	0.1 nM												1.27 nM	4.30%	CC[C@H](C)[C@H](N)C(=O)N[C@H](C(=O)N[C@@H](CC(C)C)C(=O)N[C@@H](CO)C(=O)N[C@@H](CC(C)C)C(=O)N[C@@H](CC(=O)O)C(=O)N[C@@H](C(=O)N1CCC[C@H]1C(=O)N[C@H](C(=O)N[C@@H](CCCCN)C(=O)N[C@@H](CC(C)C)C(=O)N[C@@H](CCCCNC(=O)COCCOCCNC(=O)COCCOCCNC(=O)CC[C@H](NC(=O)CCCCCCCCCCCCCCCCC(=O)O)C(=O)O)C(=O)N[C@@H](CCC(N)=O)C(=O)N[C@H](C(=O)N[C@@H](CC(C)C)C(=O)N[C@@H](CC(C)C)C(=O)N[C@@H](CCC(=O)O)C(=O)N[C@@H](CCC(N)=O)C(=O)N[C@@H](C)C(=O)N[C@@H](CCCNC(=N)N)C(=O)N[C@@H](CCC(N)=O)C(=O)N[C@@H](CCCCN)C(=O)NC(C)(C)C(=O)N[C@@H](CCC(N)=O)C(=O)N[C@@H](CCCNC(=N)N)C(=O)N[C@@H](C)C(=O)N[C@@H](CCC(N)=O)C(=O)N[C@@H](C)C(=O)N[C@@H](CCC(=O)O)C(=O)N[C@@H](CCCCN)C(=O)N[C@@H](CC(N)=O)C(=O)N[C@@H](CCCCN)C(=O)N[C@@H](CCCNC(=N)N)C(=O)N[C@H](C(=O)N[C@@H](CC(C)C)C(=O)N[C@@H](CCC(=O)O)C(=O)N[C@@H](CCCNC(=N)N)C(=O)N[C@H](C(N)=O)C(C)C)[C@@H](C)CC)[C@@H](C)CC)[C@@H](C)CC)C(C)C)C(C)C [compound 140] (H-IVLSLD[dV]PIKLK([AEEA-AEEA-γGlu-C18 diacid])QILLEQARQK[Aib]QRAQAEKNKRILERV-NH2; N-terminus assumed)
